Columns and labels:
SOD1^G93A/HB9::GFP MNs [1] = assay: Mouse MN survival assay, trophic factor withdrawal; assay type: cell-based; details: for survival of SOD1^G93A/HB9::GFP MNs: trophic factors removed and compound added day 4, fixed day 7
Description: (§3) For the small molecule screen or for standard survival assays, freshly dissociated EBs were plated at a density of 8,000 GFP^+ cells (384-well) or 30.000 GFP+ cells (96-well) per well. Four days later (day 4), trophic factors (BDNF, GDNF and CNTF) were removed, and individual compounds were added to the wells. For the primary screen each was tested at three concentrations (0.1 μM, 1 μM and 10 μM) in duplicate. […] The number of MNs surviving was analyzed by counting the remaining GFP^+ cells in the whole well. Total cell numbers were obtained by counting Hoechst-positive nuclei. A size threshold was set based on control cultures to eliminate apoptotic MNs Unless stated otherwise, survival is measured as fold-increase compared to cultures maintained without trophic factors.
(§4) For long-term MN survival assays, MN cultures were fed with fresh medium and compounds every two days until fixation and quantification as above.
(§5) All primary hits were subsequently tested in a nine-point dose-response assay, using the same screening protocol.
HB9::GFP MNs [2] = assay: MN death induced by PI3K inhibitor LY294002; assay type: cell-based; details: 10 μM co-incubated with LY294002
Description: (§1) FIGS. 3A and 3B show line graphs showing effects of kenpaullone and GSK-3 inhibitor VIII on MN death induced by treatment with a PI3K inhibitor. LY294002 was added to cultures on day 4, with or without concurrent treatment with 10 μM kenpaullone or 10 μM GSK-3 inhibitor VIII. Cells were fixed on day 7 for survival analysis. Survival is measured with respect to cells treated with DMSO alone. FIG. 3C is a bar graph showing that Kenpaullone also blocks death of MNs accelerated by co-culture with SOD1^G93A astrocytes. Hb9:GFP MNs were FACS sorted and plated on a confluent monolayer of wild-type or SOD1^G93A astrocytes. Kenpaullone was added to cultures 24 hrs later and was refreshed every three days by replacing half of the old medium with fresh medium containing IX concentration of the compound. Cells were fixed after nine days of compound treatment and MN survival was determined. Trophic factors were present throughout the experiment. Data are presented as percent survival normalized to that of DMSO treated MNs plated on wild-type astrocytes. Again, kenpaullone was effective in decreasing the extent of death. * p<0.05, ** p<0.01, *** p<0.001 (Student's t test, two-tailed). Data are presented as mean±SEM.
(§2) The PI3K/Akt pathway is well known to regulate neuronal survival including that of MNs (Brunet et al., 2001; Barthélémy et al., 2004). […] The inventors sought to examine if either kenpaullone or a more specific GSK-3 inhibitor (Inhibitor VIII) could protect MNs from death caused by inactivation of PI3K/AKT. […] Thus kenpaullone's effects are not restricted to protection after trophic factor withdrawal.

SOD1^G93A/HB9::GFP MNs [3] = assay: MN death induced by PI3K inhibitor LY294002; assay type: cell-based; details: 10 μM co-incubated with LY294002
Description: as §1, §2

Hb9:GFP MNs = assay: MN survival in co-culture with wild-type or SOD1^G93A astrocytes; assay type: cell-based, mouse; details: nine days of compound treatment, trophic factors present
Description: as §1, with “mean±SEM. […]” for “mean±SEM.”

[4] = system: endogenous mouse SOD1 protein; assay: SOD1 protein levels by Western blotting; assay type: cell-based; details: HB9::GFP or SOD1^G93A/HB9::GFP cultures
Description: Since the additional death undergone by the SOD1^G93A/HB9::GFP MNs seems likely to relate to their expression of high levels of SOD1^G93A protein, one possibility is that kenpaullone could act in part by reducing those levels. Kenpaullone was added to cultures on day 4, and the levels of mutant SOD1^G93A protein were analyzed by Western blotting on day 21 (FIGS. 5A and 5B). […] The endogenous mouse SOD1 protein was not affected in either HB9::GFP or SOD1^G93A/HB9::GFP cultures (data not shown). In addition, the inventors discovered that kenpaullone had no effect on the levels of wild-type human SOD1 in cultures produced from an ESC line that overexpresses a wild-type human SOD1 transgene (wtSOD1/Hb9::GFP) (FIGS. SA mad SB). […] However, when the inventors used single cell confocal imaging to examine SOD1^G93A levels specifically in GFP^+ cells, it was clear that the SOD1^G93A levels in MNs were reduced, both in the presence and absence of trophic factors (FIG. 5C).

[5] = system: HGK-Tak1-MKK4-JNK-c-Jun cell death signaling cascade; assay: JNK/c-Jun signaling pathway analysis by immunostaining; assay type: cell-based, mouse; details: trophic factor withdrawal
Description: For JNK/c-Jun signaling pathway analysis, freshly dissociated SOD1G93A/HB9::GFP and HB9::GFP EBs were plated at a density of 30,000 GFP+ cells/well in 96-well plates and trophic factor withdrawal/compound addition was performed on day 4. Cells were fixed at 1, 6, 24 and 48 h after treatment, stained with appropriate antibodies, and imaged using an automated microscope (Perkin Elmer Operetta) at 20× magnification. GFP+ MNs were identified using Columbus analysis software (Perkin Elmer). Nuclear and cytoplasmic compartments were defined using Hoechst and GFP. Mean intensity of fluorescent staining across nuclear or cytoplasmic compartments was measured for each MN. Intensities were corrected for background staining levels (secondary antibody only) and the number of positive MNs per condition quantified.

HB9::GFP MNs [6] = assay: Mouse MN survival assay, trophic factor withdrawal; details: for survival of HB9::GFP MNs: trophic factors removed and compound added day 4, fixed day 7
Description: as §3, §4, §5

O=C1Cc2c([nH]c3ccc(Br)cc23)-c2ccccc2N1 [Kenpaullone]
number of SOD1^G93A/HB9::GFP MNs in medium with kenpaullone (SOD1^G93A/HB9::GFP MNs [1]; complete medium (+TF), day 28): 8 times
long-term survival of MNs without trophic factors (SOD1^G93A/HB9::GFP MNs [1]; days 7, 14, 21 and 28): improved survival
MN death in complete medium (+TF) (SOD1^G93A/HB9::GFP MNs [1]; first two weeks): reduced the death
survival of SOD1^G93A/HB9::GFP MNs (SOD1^G93A/HB9::GFP MNs [1]): strong effects
survival of SOD1^G93A/HB9::GFP MNs (SOD1^G93A/HB9::GFP MNs [1]; listed as kenpaullone): potent survival promoting effects
protection from LY294002-induced MN death (HB9::GFP MNs [2]): significantly attenuated
protection from LY294002-induced MN death (SOD1^G93A/HB9::GFP MNs [3]): significantly attenuated
MN survival on SOD1^G93A astrocytes (Hb9:GFP MNs): improved survival
MN survival on wild-type astrocytes (Hb9:GFP MNs): improved survival
endogenous mouse SOD1 protein [4]: not affected
MKK4 phosphorylation [5]: suppressed
proportion of MNs immunopositive for phospho-Tak1 [5]: significantly reduced
percent of MNs positive for phospho-JNK ([5]; early time points): decreased
percent of MNs positive for phospho-cJun ([5]; early time points): decreased
MN survival effect after Ara-C treatment to eliminate dividing progenitors (HB9::GFP MNs [6]; Ara-C before trophic factor withdrawal): did not decrease the effect
long-term survival of MNs without trophic factors (HB9::GFP MNs [6]; days 7, 14, 21 and 28): improved survival
MN death in complete medium (+TF) (HB9::GFP MNs [6]; first two weeks): reduced the death
survival of FACS purified MNs (HB9::GFP MNs [6]; highly enriched Hb9::GFP MN cultures, Ara-C, trophic factors removed): still able to promote survival
survival of HB9::GFP MNs (HB9::GFP MNs [6]): strong effects
survival of HB9::GFP MNs (HB9::GFP MNs [6]; listed as kenpaullone): potent survival promoting effects

— US20160082015A1, “METHODS, COMPOSITIONS AND KITS FOR PROMOTING MOTOR NEURON SURVIVAL AND TREATING AND DIAGNOSING NEURODEGENERATIVE DISORDERS” (PRESIDENT AND FELLOWS OF HARVARD COLLEGE, priority 2013, published 2016)
